Results on 1 compound are retold here after ChEMBL document CHEMBL5346950, “Development of Biaryl-Containing Aldo-Keto Reductase 1C3 (AKR1C3) Inhibitors for Reversing AKR1C3-Mediated Drug Resistance in Cancer Treatment” (J Med Chem, 2023).

In data set [1] the test system is MCF7. Put plainly: Synergistic antiproliferative activity against human MCF7 cells overexpressing AKR1C3 assessed as dose reduction index for doxorubicin at 50 uM incubated for 72 hrs in presence of doxorubicin at 50 nM by Chou-Talalay method. It is filed as functional.
A short description of data set [2]: AUC (0 to infinity) in Sprague-Dawley rat at 2 mg/kg, iv measured for 5760 mins by LC-MS/MS analysis. More on the design: time 5760 min, dose 2 mg/kg, route iv. It counts as ADME, organism-based. The settings on record: in vivo.
Data set [3] has as its system MCF7. Put plainly: Synergistic antiproliferative activity against human MCF7 cells overexpressing AKR1C3 assessed as combination index at 50 uM incubated for 72 hrs in presence of doxorubicin at 20 nM by Chou-Talalay method. It counts as functional.
Data set [4] can be described thus: Toxicity in BALB/c nude mouse xenografted with human MCF7 cells expressing AKR1C3 assessed as histopathological changes in spleen at 10 mg/kg, po administered every 2 days for 3 weeks in presence of doxorubicin by H and E staining based analysis. It counts as organism-based. The settings on record: in vivo, 504 h. (In xenograft studies the graft and the host belong to different species.)

In data set [5] the test system is MCF7. In words: Synergistic antiproliferative activity against human MCF7 cells overexpressing AKR1C3 assessed as dose reduction index for doxorubicin at 25 uM incubated for 72 hrs in presence of doxorubicin at 20 nM by Chou-Talalay method. It is filed as functional.
The test system of data set [6] is MCF7. In words: Synergistic antiproliferative activity against human MCF7 cells overexpressing AKR1C3 assessed as dose reduction index for doxorubicin at 50 uM incubated for 72 hrs in presence of doxorubicin at 20 nM by Chou-Talalay method. It counts as functional.
Data set [7] in a line: Toxicity in BALB/c nude mouse xenografted with human MCF7 cells expressing AKR1C3 assessed as reduction in body weight at 10 mg/kg, po administered every 2 days for 3 weeks and measured every 3 days. It is filed as organism-based. The settings on record: in vivo, 504 h.
Data set [8] can be described thus: Octanol-water partition coefficient, logP of the compound. It is filed as physicochemical.
The test system of data set [9] is MCF7. In words: Synergistic antiproliferative activity against human MCF7 cells overexpressing AKR1C3 assessed as combination index at 25 uM incubated for 72 hrs in presence of doxorubicin at 50 nM by Chou-Talalay method. It is filed as functional.
The nature of data set [10]: Toxicity in BALB/c nude mouse xenografted with human MCF7 cells expressing AKR1C3 assessed as histopathological changes in lungs at 10 mg/kg, po administered every 2 days for 3 weeks in presence of doxorubicin by H and E staining based analysis. It counts as organism-based. The note with it: in vivo, 504 h.
Data set [11] can be described thus: AUC (0 to t) in Sprague-Dawley rat at 10 mg/kg, IG measured for 5760 mins by LC-MS/MS analysis. It is filed as ADME, organism-based. More on the design: time 5760 min, dose 10 mg/kg, route ig. The settings on record: in vivo, po.
Data set [12] has as its system MCF7. Put plainly: Synergistic antiproliferative activity against human MCF7 cells overexpressing AKR1C3 assessed as combination index at 10 uM incubated for 72 hrs in presence of doxorubicin at 200 nM by Chou-Talalay method. It is filed as functional.
The nature of data set [13]: MRT (0 to infinity) in Sprague-Dawley rat at 10 mg/kg, IG measured for 5760 mins by LC-MS/MS analysis. The note with it: in vivo, po. It is filed as ADME, organism-based.
The test system of data set [14] is MCF7. Put plainly: Antitumor activity against human MCF7 cells expressing AKR1C3 xenografted in BALB/c nude mouse assessed as tumor growth inhibition at 10 mg/kg, po administered every 2 days for 3 weeks and measured every 3 days by caliper analysis relative to control. It counts as functional.

In the case of `O=C(O)C1(c2ccc(-c3cc(Cl)cc(Cl)c3)c(F)c2)CC1`, the Activity_index in the data set on MCF7 [1] turned out to be 22.152; with MCF7 [5] it was 11.001; with MCF7 [6], 47.168. The AUC(0-inf) (in general, the area under the concentration-time curve extrapolated to infinity) in data set [2] was found to be 654 ng·h/mL. For the same compound, the results for the CI in the data set with MCF7 [3], in the data set with MCF7 [9] and in the data set on MCF7 [12] were 0.246, 0.277 and 0.319, respectively. The Activity result in data set [4], in [7] and in data set [10] was “Non-Toxic” in each case. For the same compound, the log partition coefficient (logP) – broadly, a log measure of how a compound divides between an organic and an aqueous phase – in data set [8] amounted to 1. Besides, in data set [11], the exposure AUC(0-t) (usually exposure summed from dosing to a finite time, without extrapolation to infinity) at 96 h came to 1480 ng·h/mL. Also, the MRT inf – broadly, a mean duration of stay, worked out from the concentration-time curve – in data set [13] is 36.6 h. In addition, in the data set on MCF7 [14], the TGI (commonly how far tumour growth fell short of that in controls) is given as 36.98%.
